Laboratory results reported in publication PMC10950897, “VCF1 is a p97/VCP cofactor promoting recognition of ubiquitylated p97-UFD1-NPL4 substrates” (Nature Communications, 2024).
Entries after “also recorded” stand apart in the source; their conditions may differ.

Legend:
p97-UFD1-NPL4 = assay: Analytical gel filtration; format: binding, human; details: equimolar p97, UFD1-NPL4, VCF1 (5 µM), pH 7.4
Protocol: For analytical gel filtration, p97 alone (5 µM hexamer), or p97 (5 µM hexamer) with UFD1-NPL4 (5 µM) and VCF1 (5 µM) were mixed in a total volume of 25 µl in SEC buffer (50 mM HEPES, pH 7.4; 150 mM NaCl). Samples were separated by size exclusion chromatography on a Superose 6 3.2/300 column (Cytiva) equilibrated in SEC buffer using an ÄKTA Purifier 10 FPLC system (GE Healthcare). After the column dead volume (0.35 column volumes), fractions were collected (120 µl) and analyzed by immunoblotting.

[1] = tested on: p97-UFD1-NPL4 binding to ubiquitylated proteins; assay: FLAG IP: p97-UFD1-NPL4 binding to ubiquitylated proteins in U2OS cell extracts; format: biochemical, human; details: U2OS total cell extracts, EBC buffer
Protocol: (§1) All in vitro binding experiments were performed in EBC or RIPA buffer as indicated. Recombinant Biotin-tagged K48-linked poly-ubiquitin chains (2−7) and K48-linked poly-ubiquitin chains (2−16) were purchased from R&D Systems and Enzo Life Science, respectively. Recombinant proteins were incubated with Strep-Tactin Sepharose (IBA), Glutathione agarose (Gold Biotechnology) or […] Fab-trap agarose (ChromoTek) overnight on an end-over-end rotator at 4 °C, washed six times with EBC or RIPA buffer, and resuspended in 2×Laemmli sample buffer. For p97, VCF1 or p47 pulldowns, antibodies (0.5 µg/sample) were coupled to agarose beads, incubated with recombinant proteins or cell lysates and washed with the indicated buffer. To assess p97-UFD1-NPL4 binding to ubiquitylated proteins in total cell extracts, U2OS cells were lysed in EBC buffer supplemented with protease and phosphatase inhibitors, sonicated and incubated on ice for 10 min. Lysates were cleared by centrifugation for 10 min at 16,100 × g. Cell lysate (40 µg) was added to recombinant proteins in EBC buffer, incubated overnight on the rotator with […] Fab-trap agarose (ChromoTek), and beads were washed six times.

p97 hexamer (His6-p97) = assay: Mass photometry; format: binding, human; details: saturating VCF1, absence of other cofactors
Protocol: Mass photometry experiments were performed on a Refeyn One (Refeyn Ltd) mass photometer at room temperature. Measurements were run in triplicates, diluting 3 μl of protein sample (20 nM) in 15 μl PBS buffer loaded on a gasket (Grace Bio-Labs reusable CultureWell gaskets (GBL103250, Merck)) mounted on a glass microscope coverslip (0107222, Marienfeld). Experiments were performed with His6-p97 alone and in presence of saturating concentrations of full-length Strep-HA-VCF1. The molecular weight was obtained by contrast comparison with known molecular weight mass standard calibrants (NativeMark Unstained Protein Standard (LC0725), Thermo Fischer Scientific) measured on the same buffer and on the same day. Movies were recorded using AcquireMP (Refeyn Ltd, version 2022 R1), with a medium field of view and exposure time of 0.95 ms for the acquisition camera settings. A total of 6000 frames were recorded over a duration of one minute. Movies were processed and analysed with the DiscoverMP software (Refeyn Ltd, version 2022 R1) provided by the instrument manufacturer.

p97 = assay: IP of endogenous VCF1 from U2OS cells; format: binding, human
Protocol: (§2) Immunoblotting was performed as previously described. Immunoprecipitation (IP) of HA-tagged proteins was performed using Anti-HA Affinity matrix (Roche) under denaturing conditions, unless otherwise stated. GFP-trap and […] Fab-trap agarose (Chromotek) were used according to manufacturer’s instructions. Cell lysis was performed using RIPA buffer (140 mM NaCl; 10 mM Tris-HCl, pH 8.0; 0.1% sodium deoxycholate; 1% Triton X-100; 0.1% SDS; 1 mM EDTA; 0.5 mM EGTA) or EBC buffer (50 mM Tris, pH 7.5; 150 mM NaCl; 1 mM EDTA; 0.5% NP-40, 1 mM DTT). IPs were washed in non-denaturing buffer (50 mM Tris-HCl, pH 7.5; 150 mM NaCl; 0.5 mM EDTA). Cell lysis and IP under partially denaturing conditions were performed using denaturing buffer (20 mM Tris-HCl, pH 7.5; 50 mM NaCl; 0.5% sodium deoxycholate; 0.5% NP-40; 0.5% SDS; 1 mM EDTA). All lysis and wash buffers were supplemented with 1 mM fresh PMSF Protease Inhibitor (Thermo), complete EDTA-free protease inhibitor Cocktail Tablets (Roche), 1.25 mM N-ethylmaleimide (Sigma) and 50 µM PR-619 (Calbiochem).

[2] = tested on: C1QBP; histone H3 (U2OS/GFP-VCF1 cells); assay: GFP IP immunoblot for C1QBP and Histone H3; format: binding, human; details: U2OS/GFP-VCF1 WT
Protocol: as §2

[3] = tested on: p97-UFD1-NPL4 binding to K48-Ub2-7; assay: FLAG IP: p97-UFD1-NPL4 binding to K48-linked ubiquitin chains, purified proteins; format: biochemical, human; details: purified proteins
Protocol: as §1

With “VCF1: human FAM104A isoform 1, 186 amino acids (UniProt Q969W3); recombinant Strep-HA-tagged” the “comigration in size-exclusion chromatography” value (p97-UFD1-NPL4) was “comigration of the p97-VCF1-UFD1-NPL4 complex”, the “effect on p97-UFD1-NPL4 binding to ubiquitylated proteins” value [1] was “prominent ability of VCF1 to enhance p97-UFD1-NPL4 binding to ubiquitylated proteins; also recorded: fully dependent on the ubiquitin-binding ability of the UFD1-NPL4 complex” and the “VCF1 molecules bound per p97 hexamer” value (p97 hexamer (His6-p97)) was 2-3 molecules per p97 hexamer. For the same substance, the “interaction of endogenous VCF1 with p97” value (p97; U2OS whole cell lysates) was “validate an interaction between endogenous VCF1 and p97”, the “endogenous NPL4 in endogenous VCF1 IP” value (p97; U2OS, along with p97) was “NPL4 could be detected in endogenous VCF1 IPs along with p97” and the “C1QBP in VCF1 IP” value [2] was “unable to detect C1QBP in VCF1 IPs”. The “interaction with histone H3” value [2] was “weak interaction between VCF1 and histone H3”, the “effect on UFD1-NPL4 association with p97” value [3] was “no discernible impact on UFD1-NPL4 association with p97” and the “effect on p97-UFD1-NPL4 binding to K48 ubiquitin chains” value ([3]; FLAG IP) was “strong stimulatory impact on p97-UFD1-NPL4 binding to K48-linked poly-ubiquitin chains in vitro”.
